Laboratory results published in patent US11254663B2 (BRISTOL-MYERS SQUIBB COMPANY, priority 2019, dated 2022).

These compounds were tested against FXR (Homo sapiens (Human), UniProt Q96RI1) (assay: FXR EC50 (FXR agonist potency reported with each Example)).
Assay type: cell-based

Chain of FXR (Q96RI1 262-486): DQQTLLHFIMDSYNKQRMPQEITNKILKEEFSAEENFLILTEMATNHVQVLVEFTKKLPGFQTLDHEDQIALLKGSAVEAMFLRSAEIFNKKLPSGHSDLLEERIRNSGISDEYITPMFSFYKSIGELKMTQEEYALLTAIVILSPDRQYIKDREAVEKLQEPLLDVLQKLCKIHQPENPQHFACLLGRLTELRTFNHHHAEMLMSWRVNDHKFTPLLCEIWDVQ

| Compound | EC50 [nM] |
| --- | --- |
| CCOc1nnc(-c2cccc(N(CC34CCC(c5nc(C6CC6)no5)(CC3)CC4)C(=O)C3CCC(F)(F)C3)c2)o1 (stereo not shown) [Example 55, N-((4-(3-cyclopropyl-1,2,4-oxadiazol-5-yl)bicyclo[2.2.2]octan-1-yl)methyl)-N-(3-(5-ethoxy-1,3,4-oxadiazol-2-yl)phenyl)-3,3-difluorocyclopentane-1-carboxamide] | 127 |
| CCOc1nnc(-c2cccc(N(CC34CCC(c5nc(C6CC6)no5)(CC3)CC4)C(=O)C3CC(C(F)F)C3)c2)o1 (stereo not shown) [Example 56, N-((4-(3-cyclopropyl-1,2,4-oxadiazol-5-yl)bicyclo[2.2.2]octan-1-yl)methyl)-3-(difluoromethyl)-N-(3-(5-ethoxy-1,3,4-oxadiazol-2-yl)phenyl)cyclobutane-1-carboxamide] | 275 |
| O=C(N(CC12CCC(c3nc(C4CC4)no3)(CC1)CC2)c1cccc(-c2cc(C3CC3)on2)c1)C12CC(F)(C1)C2 [Example 57, N-((4-(3-cyclopropyl-1,2,4-oxadiazol-5-yl)bicyclo[2.2.2]octan-1-yl)methyl)-N-(3-(5-cyclopropylisoxazol-3-yl)phenyl)-3-fluorobicyclo[1.1.1]pentane-1-carboxamide] | 19.8 |
| O=C(C1CC(C(F)F)C1)N(CC12CCC(c3nc(C4CC4)no3)(CC1)CC2)c1cccc(-c2cc(C3CC3)on2)c1 (stereo not shown) [Example 58, N-((4-(3-cyclopropyl-1,2,4-oxadiazol-5-yl)bicyclo[2.2.2]octan-1-yl)methyl)-N-(3-(5-cyclopropylisoxazol-3-yl)phenyl)-3-(difluoromethyl)cyclobutane-1-carboxamide] | 39 |
| O=C(C1CCC(F)(F)C1)N(CC12CCC(c3nc(C4CC4)no3)(CC1)CC2)c1cccc(-c2cc(C3CC3)on2)c1 (stereo not shown) [Example 59, N-((4-(3-cyclopropyl-1,2,4-oxadiazol-5-yl)bicyclo[2.2.2]octan-1-yl)methyl)-N-(3-(5-cyclopropylisoxazol-3-yl)phenyl)-3,3-difluorocyclopentane-1-carboxamide] | 70 |
| O=C(C1CC(F)(F)C1)N(CC12CCC(c3nc(C4CC4)no3)(CC1)CC2)c1cccc(-c2cc(C3CC3)on2)c1 [Example 60, N-((4-(3-cyclopropyl-1,2,4-oxadiazol-5-yl)bicyclo[2.2.2]octan-1-yl)methyl)-N-(3-(5-cyclopropylisoxazol-3-yl)phenyl)-3,3-difluorocyclobutane-1-carboxamide] | 230 |
| O=C(N(CC12CCC(c3nc(CC4CC4)no3)(CC1)CC2)c1cccc(-c2nc(CC3CC3)no2)c1)C12CC(F)(C1)C2 [Example 61, N-((4-(3-(cyclopropylmethyl)-1,2,4-oxadiazol-5-yl)bicyclo[2.2.2]octan-1-yl)methyl)-N-(3-(3-(cyclopropylmethyl)-1,2,4-oxadiazol-5-yl)phenyl)-3-fluorobicyclo[1.1.1]pentane-1-carboxamide] | 99 |
| O=C(C1CCC(F)(F)C1)N(CC12CCC(c3nc(CC4CC4)no3)(CC1)CC2)c1cccc(-c2nc(CC3CC3)no2)c1 (stereo not shown) [Example 62, N-((4-(3-(cyclopropylmethyl)-1,2,4-oxadiazol-5-yl)bicyclo[2.2.2]octan-1-yl)methyl)-N-(3-(3-(cyclopropylmethyl)-1,2,4-oxadiazol-5-yl)phenyl)-3,3-difluorocyclopentane-1-carboxamide] | 363 |
| O=C(C1CC(F)(F)C1)N(CC12CCC(c3nc(CC4CC4)no3)(CC1)CC2)c1cccc(-c2nc(CC3CC3)no2)c1 [Example 63, N-((4-(3-(cyclopropylmethyl)-1,2,4-oxadiazol-5-yl)bicyclo[2.2.2]octan-1-yl)methyl)-N-(3-(3-(cyclopropylmethyl)-1,2,4-oxadiazol-5-yl)phenyl)-3,3-difluorocyclobutane-1-carboxamide] | 562 |
| O=C(C1CCC1)N(CC12CCC(c3nc(CC4CC4)no3)(CC1)CC2)c1cccc(-c2nc(CC3CC3)no2)c1 [Example 64, N-((4-(3-(cyclopropylmethyl)-1,2,4-oxadiazol-5-yl)bicyclo[2.2.2]octan-1-yl)methyl)-N-(3-(3-(cyclopropylmethyl)-1,2,4-oxadiazol-5-yl)phenyl)cyclobutanecarboxamide] | 524 |
| O=C(N(CC12CCC(c3nc(C4CC4)no3)(CC1)CC2)c1cccc(-c2nc(CC3CC3)no2)c1)C12CC(F)(C1)C2 [Example 65, N-((4-(3-cyclopropyl-1,2,4-oxadiazol-5-yl)bicyclo[2.2.2]octan-1-yl)methyl)-N-(3-(3-(cyclopropylmethyl)-1,2,4-oxadiazol-5-yl)phenyl)-3-fluorobicyclo[1.1.1]pentane-1-carboxamide] | 142 |
| O=C(C1CCC1)N(CC12CCC(c3nc(C4CC4)no3)(CC1)CC2)c1cccc(-c2nc(CC3CC3)no2)c1 [Example 66, N-((4-(3-cyclopropyl-1,2,4-oxadiazol-5-yl)bicyclo[2.2.2]octan-1-yl)methyl)-N-(3-(3-(cyclopropylmethyl)-1,2,4-oxadiazol-5-yl)phenyl)cyclobutanecarboxamide] | 303 |
| O=C(C1CCC(F)(F)C1)N(CC12CCC(c3nc(C4CC4)no3)(CC1)CC2)c1cccc(-c2nc(CC3CC3)no2)c1 (stereo not shown) [Example 67, N-((4-(3-cyclopropyl-1,2,4-oxadiazol-5-yl)bicyclo[2.2.2]octan-1-yl)methyl)-N-(3-(3-(cyclopropylmethyl)-1,2,4-oxadiazol-5-yl)phenyl)-3,3-difluorocyclopentane-1-carboxamide] | 202 |
| O=C(N(CC12CCC(c3nc(CC4CC4)no3)(CC1)CC2)c1cccc(-c2nc(C3CC3)no2)c1)C12CC(F)(C1)C2 [Example 68, N-(3-(3-cyclopropyl-1,2,4-oxadiazol-5-yl)phenyl)-N-((4-(3-(cyclopropylmethyl)-1,2,4-oxadiazol-5-yl)bicyclo[2.2.2]octan-1-yl)methyl)-3-fluorobicyclo[1.1.1]pentane-1-carboxamide] | 110 |
| O=C(C1CCC(F)(F)C1)N(CC12CCC(c3nc(CC4CC4)no3)(CC1)CC2)c1cccc(-c2nc(C3CC3)no2)c1 (stereo not shown) [Example 69, N-(3-(3-cyclopropyl-1,2,4-oxadiazol-5-yl)phenyl)-N-((4-(3-(cyclopropylmethyl)-1,2,4-oxadiazol-5-yl)bicyclo[2.2.2]octan-1-yl)methyl)-3,3-difluorocyclopentane-1-carboxamide] | 474 |
| O=C(C1CC(F)(F)C1)N(CC12CCC(c3nc(CC4CC4)no3)(CC1)CC2)c1cccc(-c2nc(C3CC3)no2)c1 [Example 70, N-(3-(3-cyclopropyl-1,2,4-oxadiazol-5-yl)phenyl)-N-((4-(3-(cyclopropylmethyl)-1,2,4-oxadiazol-5-yl)bicyclo[2.2.2]octan-1-yl)methyl)-3,3-difluorocyclobutane-1-carboxamide] | 598 |
| O=C(C1CCC1)N(CC12CCC(c3nc(CC4CC4)no3)(CC1)CC2)c1cccc(-c2nc(C3CC3)no2)c1 [Example 71, N-(3-(3-cyclopropyl-1,2,4-oxadiazol-5-yl)phenyl)-N-((4-(3-(cyclopropylmethyl)-1,2,4-oxadiazol-5-yl)bicyclo[2.2.2]octan-1-yl)methyl)cyclobutanecarboxamide] | 406 |
| COCc1nc(-c2cccc(N(CC34CCC(c5nc(C6CC6)no5)(CC3)CC4)C(=O)C34CC(F)(C3)C4)c2)cs1 [Example 72, N-((4-(3-cyclopropyl-1,2,4-oxadiazol-5-yl)bicyclo[2.2.2]octan-1-yl)methyl)-3-fluoro-N-(3-(2-(methoxymethyl)thiazol-4-yl)phenyl)bicyclo[1.1.1]pentane-1-carboxamide] | 166 |
| COCc1nc(-c2cccc(N(CC34CCC(c5nc(C6CC6)no5)(CC3)CC4)C(=O)C3CC(C(F)F)C3)c2)cs1 (stereo not shown) [Example 73, N-((4-(3-cyclopropyl-1,2,4-oxadiazol-5-yl)bicyclo[2.2.2]octan-1-yl)methyl)-3-(difluoromethyl)-N-(3-(2-(methoxymethyl)thiazol-4-yl)phenyl)cyclobutane-1-carboxamide] | 341 |
| COCc1nc(-c2cccc(N(CC34CCC(c5nc(C6CC6)no5)(CC3)CC4)C(=O)C3CCC(F)(F)C3)c2)cs1 (stereo not shown) [Example 74, N-((4-(3-cyclopropyl-1,2,4-oxadiazol-5-yl)bicyclo[2.2.2]octan-1-yl)methyl)-3,3-difluoro-N-(3-(2-(methoxymethyl)thiazol-4-yl)phenyl)cyclopentane-1-carb oxamide] | 220 |
| Cn1nc(-c2cccc(N(CC34CCC(c5nc(C6CC6)no5)(CC3)CC4)C(=O)C34CC(F)(C3)C4)c2)cc1C1CC1 [Example 75, N-((4-(3-cyclopropyl-1,2,4-oxadiazol-5-yl)bicyclo[2.2.2]octan-1-yl)methyl)-N-(3-(5-cyclopropyl-1-methyl-1H-pyrazol-3-yl)phenyl)-3-fluorobicyclo[1.1.1]pentane-1-carboxamide] | 247 |
| Cn1nc(-c2cccc(N(CC34CCC(c5nc(C6CC6)no5)(CC3)CC4)C(=O)C3CC(F)(F)C3)c2)cc1C1CC1 [Example 76, N-((4-(3-cyclopropyl-1,2,4-oxadiazol-5-yl)bicyclo[2.2.2]octan-1-yl)methyl)-N-(3-(5-cyclopropyl-1-methyl-1H-pyrazol-3-yl)phenyl)-3,3-difluorocyclobutane-1-carboxamide] | 610 |
| Cn1nc(-c2cccc(N(CC34CCC(c5nc(C6CC6)no5)(CC3)CC4)C(=O)C3CCC(F)(F)C3)c2)cc1C1CC1 (stereo not shown) [Example 77, N-((4-(3-cyclopropyl-1,2,4-oxadiazol-5-yl)bicyclo[2.2.2]octan-1-yl)methyl)-N-(3-(5-cyclopropyl-1-methyl-1H-pyrazol-3-yl)phenyl)-3,3-difluorocyclopentane-1-carboxamide] | 429 |
| Cn1nc(-c2cccc(N(CC34CCC(c5nc(C6CC6)no5)(CC3)CC4)C(=O)C3CC(C(F)F)C3)c2)cc1C1CC1 (stereo not shown) [Example 78, N-((4-(3-cyclopropyl-1,2,4-oxadiazol-5-yl)bicyclo[2.2.2]octan-1-yl)methyl)-N-(3-(5-cyclopropyl-1-methyl-1H-pyrazol-3-yl)phenyl)-3-(difluoromethyl)cyclobutane-1-carboxamide] | 607 |
| COC(C)(C)c1coc(-c2cccc(N(CC34CCC(c5nc(C6CC6)no5)(CC3)CC4)C(=O)C34CC(F)(C3)C4)c2)n1 [Example 79, N-((4-(3-cyclopropyl-1,2,4-oxadiazol-5-yl)bicyclo[2.2.2]octan-1-yl)methyl)-3-fluoro-N-(3-(4-(2-methoxypropan-2-yl)oxazol-2-yl)phenyl)bicyclo[1.1.1]pentane-1-carboxamide] | 194 |
